Test results: patent US7893092B2, “Anthranilamide derivatives as insecticides” (Syngenta Crop Protection, Inc., priority 2004, dated 2011)
Read-outs that look alike come from different tables or passages of the source.

Tests used:
Spodoptera littoralis [1] = assay: Systemic insecticide test for Spodoptera littoralis (cotton leafworm) (Example B9); format: in vivo; conditions: 96 h, read-out: percentage of dead (activity)
Procedure: Four day old maize seedlings (Zea mays, variety Stoneville) are placed individual in vials containing 24 ml water into which the chemical is diluted at 12.5 ppm. Seedlings are allowed to grow for six days. Subsequently leaves are cut and placed in a Petri dish (5 cm diameter), inoculated with twelve to fifteen 1st instar S. littoralis larvae and incubated for four days in a growth chamber (25° C., 50% r.h., 18:6 L:D photo period). Number of alive insects are counted and percentage of dead calculated. Tests were conducted with one replicate. In this test, compounds listed in the Tables above show good activity. In particular compounds T1.1.17, T1.1.89, T41.1.1, T35.1.1, T40.1.1, T30.1.1, T44.1.1, T31.1.1, T31.1.2, T30.1.2, T1.1.17, T1.1.89, T16.1.1, T36.1.1, T16.1.1, T3.7.1, T18.1.1, T43.1.1, T42.1.1, T30.1.2, T30.1.1, T40.1.1, T41.1.1, T45.1.1, T35.1.1, T1.1.73, T18.1.1, T36.1.1, T1.1.1 and T1.1.73 have an activity of over 80%.

Diabrotica balteata = assay: Activity against Diabrotica balteata (Example B2); format: in vivo; conditions: 144 h, maize seedlings sprayed, 400 ppm active ingredient, 2nd instar larvae, 6 days, read-out: percentage reduction in the population (% activity)
Procedure: Maize seedlings are sprayed with an aqueous emulsion spray mixture comprising 400 ppm of active ingredient and, after the spray coating has dried on, populated with 10 larvae (2nd instar) of Diabrotica balteata and introduced into a plastic container. 6 days later, the percentage reduction in the population (% activity) is determined by comparing the number of dead larvae between the treated and untreated plants.

Spodoptera littoralis [2] = assay: Activity against Spodoptera littoralis (Example B8); format: in vivo; conditions: 72 h, young soya plants sprayed, 400 ppm active ingredient, 1st instar caterpillars, 3 days, read-out: percentage reduction in the population and in the feeding damage (% activity)
Procedure: (§1) Young soya plants are sprayed with an aqueous emulsion spray mixture comprising 400 ppm of active ingredient and, after the spray coating has dried on, populated with 10 caterpillars (1st instar) of Spodoptera littoralis and introduced into a plastic container. 3 days later, the percentage reduction in the population and in the feeding damage (% activity) are determined by comparing the number of dead caterpillars and the feeding damage between the treated and untreated plants.

Plutella xylostella = assay: Activity against Plutella xylostella (Example B7); format: in vivo; conditions: 72 h, young cabbage plants sprayed, 400 ppm active ingredient, 3rd instar caterpillars, 3 days, read-out: percentage reduction in the population and in the feeding damage (% activity)
Procedure: as §1, with “cabbage” for “soya”, “(3rd” for “(1st”, “Plutella xylostella” for “Spodoptera littoralis”

Heliothis virescens = assay: Activity against Heliothis virescens, foliar application (Example B3); format: in vivo; conditions: 144 h, young soya plants sprayed, 400 ppm active ingredient, 1st instar caterpillars, 6 days, read-out: percentage reduction in the population and in the feeding damage (% activity)
Procedure: as §1, with “Heliothis virescens” for “Spodoptera littoralis”, “6” for “3”

Myzus persicae = assay: Activity against Myzus persicae, foliar application (Example B5); format: in vivo; conditions: pea seedlings sprayed, 400 ppm active ingredient, 20°, 3 and 6 days, read-out: percentage reduction in the population (% activity)
Procedure: Pea seedlings are infected with Myzus persicae, subsequently sprayed with a spray mixture comprising 400 ppm of active ingredient and then incubated at 20°. 3 and 6 days later, the percentage reduction in the population (% activity) is determined by comparing the number of dead aphids between the treated and untreated plants.

melting point [°C] | Compound | pest or weed control at 12.5 ppm (Spodoptera littoralis [1]; in Zea mays) [%] | inhibition at 400 ppm (Diabrotica balteata) [%] | inhibition at 400 ppm (Spodoptera littoralis [2]) [%] | inhibition at 400 ppm (Plutella xylostella) [%] | inhibition at 400 ppm (Heliothis virescens) [%] | inhibition at 400 ppm (Myzus persicae) [%] | pest or weed control at 12.5 ppm (Spodoptera littoralis [1]; maize seedlings in water with 12.5 ppm, 6 days growth, cut leaves, 1st instar larvae, 4 days, one replicate) [%]
 | Cc1cc(Cl)cc(C(=O)NC(C)CS(C)(=O)=NC(=O)C(F)(F)F)c1NC(=O)c1cc(C(F)(F)F)nn1-c1ncccc1Cl (stereo not shown) [T18.1.1] | > 80 | > 80 | > 80 | > 80 |  |  | 
 | Cc1cc(Cl)cc(C(=O)NCCOCCS(C)(=O)=NC(=O)C(F)(F)F)c1NC(=O)c1cc(C(F)(F)F)nn1-c1ncccc1Cl (stereo not shown) [T45.1.1] | > 80 |  |  | > 80 |  |  | 
 | Cc1cc(Cl)cc(C(=O)NCCCCS(C)(=O)=NC(=O)C(F)(F)F)c1NC(=O)c1cc(C(F)(F)F)nn1-c1ncccc1Cl (stereo not shown) [T41.1.1] | > 80 |  | > 80 | > 80 |  |  | 
 | Cc1cc(Cl)cc(C(=O)NCCOCCS(C)(=N)=O)c1NC(=O)c1cc(C(F)(F)F)nn1-c1ncccc1Cl (stereo not shown) [T44.1.1] | > 80 |  | > 80 | > 80 |  |  | 
207 to 209 | COC(=O)C(CCS(C)(=N)=O)NC(=O)c1cc(Cl)cc(C)c1NC(=O)c1cc(C(F)(F)F)nn1-c1ncccc1Cl (stereo not shown) |  |  |  |  |  |  | 
 | Cc1cc(C#N)cc(C(=O)NC(C)(C)CS(C)(=N)=O)c1NC(=O)c1cc(OCC(F)(F)F)nn1-c1ncccc1Cl (stereo not shown) [T1.1.89] | > 80 | > 80 | > 80 | > 80 |  |  | 
 | Cc1cc(Cl)cc(C(=O)NC(C)(C)CS(C)(=N)=O)c1NC(=O)c1cc(C(F)(F)F)nn1-c1ncccc1Cl (stereo not shown) [T1.1.1] | > 80 | > 80 | > 80 | > 80 | > 80 | > 80 | 
 | Cc1cc(Cl)cc(C(=O)NCC(C)(C)CS(C)(=O)=NC(=O)C(F)(F)F)c1NC(=O)c1cc(C(F)(F)F)nn1-c1ncccc1Cl (stereo not shown) [T43.1.1] | > 80 |  | > 80 | > 80 |  |  | 
 | Cc1cc(Cl)cc(C(=O)NCCS(C)(=N)=O)c1NC(=O)c1cc(C(F)(F)F)nn1-c1ncccc1Cl (stereo not shown) [T30.1.1] | > 80 |  | > 80 | > 80 |  |  | 
 | Cc1cc(Cl)cc(C(=O)NC(C)CS(C)(=N)=O)c1NC(=O)c1cc(C(F)(F)F)nn1-c1ncccc1Cl (stereo not shown) [T16.1.1] | > 80 | > 80 | > 80 | > 80 | > 80 |  | 
248 to 250 | Cc1cc(Cl)cc(C(=O)NC(CS(C)(=N)=O)C(C)C)c1NC(=O)c1cc(C(F)(F)F)nn1-c1ncccc1Cl (stereo not shown) |  |  |  |  |  |  | 
 | Cc1cc(Cl)cc(C(=O)NCCCCS(C)(=N)=O)c1NC(=O)c1cc(C(F)(F)F)nn1-c1ncccc1Cl (stereo not shown) [T40.1.1] | > 80 |  | > 80 | > 80 |  |  | 
 | CCS(=N)(=O)CCNC(=O)c1cc(Cl)cc(C)c1NC(=O)c1cc(C(F)(F)F)nn1-c1ncccc1Cl (stereo not shown) [T30.1.2] | > 80 |  | > 80 | > 80 |  |  | 
187 to 189 | Cc1cc(C#N)cc(C(=O)NC2(CS(C)(=O)=NC(=O)C(F)(F)F)CC2)c1NC(=O)c1cc(C(F)(F)F)nn1-c1ncccc1Cl (stereo not shown) |  |  |  |  |  |  | 
 | Cc1cc(C#N)cc(C(=O)NC(C)(C)CS(C)(=N)=O)c1NC(=O)c1cc(C(F)(F)F)nn1-c1ncccc1Cl (stereo not shown) [T1.1.73] | > 80 | > 80 | > 80 | > 80 |  |  | 
 | Cc1cc(Cl)cc(C(=O)NC(C)(C)CS(C)(=N)=O)c1NC(=O)c1cc(OCC(F)(F)F)nn1-c1ncccc1Cl (stereo not shown) [T1.1.17] | > 80 | > 80 | > 80 | > 80 |  |  | 
 | Cc1cc(Cl)cc(C(=O)NCC(C)S(C)(=N)=O)c1NC(=O)c1cc(C(F)(F)F)nn1-c1ncccc1Cl (stereo not shown) [T36.1.1] | > 80 |  | > 80 | > 80 |  |  | 
 | Cc1cc(Cl)cc(C(=O)NCc2ccccc2S(C)(=O)=NC(=O)C(F)(F)F)c1NC(=O)c1cc(C(F)(F)F)nn1-c1ncccc1Cl (stereo not shown) [T35.1.1] |  |  | > 80 | > 80 | > 80 |  | > 80
 | Cc1cc(Cl)cc(C(=O)NCCS(C)(=O)=NC(=O)C(F)(F)F)c1NC(=O)c1cc(C(F)(F)F)nn1-c1ncccc1Cl (stereo not shown) [T31.1.1] | > 80 |  | > 80 | > 80 |  |  | 
225 to 226 | CCCCC(CS(C)(=N)=O)NC(=O)c1cc(Cl)cc(C)c1NC(=O)c1cc(C(F)(F)F)nn1-c1ncccc1Cl (stereo not shown) |  |  |  |  |  |  | 
125 to 130 | Cc1cc(Cl)cc(C(=O)NCC(C)S(C)(=O)=NC(=O)C(F)(F)F)c1NC(=O)c1cc(C(F)(F)F)nn1-c1ncccc1Cl (stereo not shown) |  |  |  |  |  |  | 
 | Cc1cc(Cl)cc(C(=O)NCC(C)(C)CS(C)(=N)=O)c1NC(=O)c1cc(C(F)(F)F)nn1-c1ncccc1Cl (stereo not shown) [T42.1.1] | > 80 |  | > 80 | > 80 |  |  | 
 | CCS(=O)(CCNC(=O)c1cc(Cl)cc(C)c1NC(=O)c1cc(C(F)(F)F)nn1-c1ncccc1Cl)=NC(=O)C(F)(F)F (stereo not shown) [T31.1.2] | > 80 |  | > 80 | > 80 |  |  | 
110 to 113 | Cc1cc(Cl)cc(C(=O)NCCCCCCS(C)(=O)=NC(=O)C(F)(F)F)c1NC(=O)c1cc(C(F)(F)F)nn1-c1ncccc1Cl (stereo not shown) [T47.1.1] |  |  | > 80 | > 80 |  |  | 

Compound | melting point [°C] | pest or weed control at 12.5 ppm (Spodoptera littoralis [1]; in Zea mays) [%] | inhibition at 400 ppm (Diabrotica balteata) [%] | inhibition at 400 ppm (Spodoptera littoralis [2]) [%] | inhibition at 400 ppm (Plutella xylostella) [%] | inhibition at 400 ppm (Heliothis virescens) [%] | inhibition at 400 ppm (Myzus persicae) [%] | pest or weed control at 12.5 ppm (Spodoptera littoralis [1]; maize seedlings in water with 12.5 ppm, 6 days growth, cut leaves, 1st instar larvae, 4 days, one replicate) [%]
Cc1cc(Cl)cc(C(=O)NCc2ccccc2S(C)(=N)=O)c1NC(=O)c1cc(C(F)(F)F)nn1-c1ncccc1Cl (stereo not shown) [T34.1.1] | 235 to 238 |  |  | > 80 | > 80 |  |  | 
Cc1cc(Cl)cc(C(=O)NCCCCCCS(C)(=N)=O)c1NC(=O)c1cc(C(F)(F)F)nn1-c1ncccc1Cl (stereo not shown) [T46.1.1] | 148 to 152 |  |  | > 80 | > 80 | > 80 |  | 
Cc1cc(Cl)cc(C(=O)NC(C)(C)CS(C)(=O)=NC(=O)C(F)(F)F)c1NC(=O)c1cc(C(F)(F)F)nn1-c1ncccc1Cl (stereo not shown) [T3.1.1] | 112 to 115 |  | > 80 | > 80 | > 80 | > 80 | > 80 | 
CCC(CS(C)(=O)=NC(=O)C(F)(F)F)NC(=O)c1cc(Cl)cc(C)c1NC(=O)c1cc(C(F)(F)F)nn1-c1ncccc1Cl (stereo not shown) [T39.1.1] | 170 to 174 |  |  |  | > 80 |  |  | 
CCC(CS(C)(=N)=O)NC(=O)c1cc(Cl)cc(C)c1NC(=O)c1cc(C(F)(F)F)nn1-c1ncccc1Cl (stereo not shown) [T38.1.1] | 180 to 185 |  |  |  | > 80 |  |  | 
